# Patent US20250129055A1, “GLUCOSIDE DERIVATIVE, AND PREPARATION METHOD THEREFOR AND APPLICATION THEREOF” (BEIJING INCREASE INNOVATIVE DRUG CO., LTD., priority 2020, published 2025)
# Marks after values point to notes of the source that are not given here.
# Key:
# normal ICR mice = assay: Blood glucose level of normal mice after oral administration of glucose; type: in vivo
# Description: Test Example 2 Evaluation of the in vivo activity of the compounds of the present invention: the effect on the blood glucose level of normal mice after oral administration of glucose
# ICR mice (male, 18-20 g), purchased from Beijing Vital River Laboratories Co., Ltd., were fed adaptively for 4 days, and randomly divided into 4 groups, namely normal control group, positive control group, and two groups of test compounds, with 8 mice in each group.
# The aforementioned stock solutions were diluted to appropriate concentrations with double distilled water.
# The mice were fasted overnight. […] After 1 h, blood was collected at 0 min (fasting), and then mice in each group were administered with glucose (2.0 g/kg) solution by gavage. Blood was collected at 30 min, 60 min, and 120 min after glucose administration. The blood glucose level was measured using glucose oxidase-peroxidase method, and the area under the blood glucose curve was calculated.
# The data were expressed as mean±SD. The comparison between multiple groups was performed by one-way analysis of variance, and the comparison between two groups was performed by Dunnett's t test. Statistical graphing was performed using Graphpad Prism software.
# [1] = tested on: spontaneous type 2 diabetes mellitus db/db mice; assay: Pharmacodynamic effect on spontaneous type 2 diabetes mellitus db/db mice; type: in vivo
# Description: Test example 4 Pharmacodynamic effect of the compounds of the present invention on spontaneous type 2 diabetes mellitus db/db mice
# Spontaneous type 2 diabetes mellitus db/db mice and the normal control db/m mice (male, 5-6 weeks old) were used. The db/db mice were randomly divide into […] based on random blood glucose, fasting blood glucose, percentage of blood glucose reduction at 40 min, blood triglycerides, total blood cholesterol, and body weight, which were model group (con), positive control group and three groups of test compound with different doses (n=10).
# Mice were administered with drugs by gavage.
# The mice were fasted for 2 h, and then the 0 h (fasting) blood samples were collected. Then the mice in each group were administered with drugs by gavage, and blood samples were collected at 1 h, 2 h, 4 h, 6 h, 8 h and 24 h after administration. The blood glucose level was measured using glucose oxidase-peroxidase method, and the area under the blood glucose curve was calculated. Moreover, urine samples were collected 2 h and 4 h after administration to determine the concentration of urine glucose.
# On the 15th day of continuous administration, before the mice were fasted, blood samples were collected to measure the random blood glucose. Then the mice were fasted and administered with the compounds, and after 2 h, blood samples were collected to measure the fasting blood glucose. […]
# The data were expressed as mean±SEM (n=10). The comparison between multiple groups was performed by one-way analysis of variance, and the comparison between two groups was performed by Dunnett's t test. Statistical graphing was performed using Graphpad Prism software.
# SGLT2 = SGLT2 (Homo sapiens (Human), UniProt P31639); assay: In vitro SGLT2 inhibitory activity: 1-NBDG uptake by CHO-SGLT2 cells; type: cell-based; conditions: read-out: Inhibition rate of compounds on SGLT2 (%)
# Chain of SGLT2 (P31639 whole entry): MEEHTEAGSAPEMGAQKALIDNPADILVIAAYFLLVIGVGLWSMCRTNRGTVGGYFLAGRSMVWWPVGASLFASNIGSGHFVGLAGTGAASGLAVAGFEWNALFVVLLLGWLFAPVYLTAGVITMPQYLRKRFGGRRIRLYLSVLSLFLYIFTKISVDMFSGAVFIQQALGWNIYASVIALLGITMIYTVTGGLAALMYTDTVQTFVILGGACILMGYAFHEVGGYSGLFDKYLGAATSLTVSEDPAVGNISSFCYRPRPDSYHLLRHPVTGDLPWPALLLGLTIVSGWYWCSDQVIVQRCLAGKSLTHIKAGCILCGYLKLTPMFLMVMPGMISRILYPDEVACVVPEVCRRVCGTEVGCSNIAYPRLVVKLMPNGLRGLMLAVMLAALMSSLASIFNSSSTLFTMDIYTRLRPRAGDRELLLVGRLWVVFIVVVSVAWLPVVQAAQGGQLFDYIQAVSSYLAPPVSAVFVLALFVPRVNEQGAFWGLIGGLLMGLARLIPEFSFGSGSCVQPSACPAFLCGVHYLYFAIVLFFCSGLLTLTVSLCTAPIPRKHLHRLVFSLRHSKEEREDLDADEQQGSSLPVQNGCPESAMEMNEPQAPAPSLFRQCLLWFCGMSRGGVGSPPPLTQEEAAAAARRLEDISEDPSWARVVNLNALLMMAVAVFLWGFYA
# Description: The effect of the compounds on SGLT2-mediated glucose uptake was investigated by establishing an SGLT2 overexpression cell model and using the fluorescent glucose (2-deoxy-1-[(7-nitro-2,1,3-benzoxadiazol-4-yl)amino]-D-glucose, 1-NBDG) tracer method to screen out candidate compounds with SGLT2 inhibitory activity.
# The humanized SGLT2 overexpression cells (CHO-SGLT2) constructed from Chinese hamster ovary (CHO) cells were cultured in 1640 medium (Gibco) containing 10% fetal bovine serum (Gibco, 10270), subcultured at a ratio of 1:3, and replaced with new culture medium 3 times every week. Fluorescence detection cell culture plates and other culture flasks were purchased from Corning Company. […] Appropriate amounts of all compounds were weighed, prepared into 100 mM stock solutions with DMSO, and stored at 4° C. in the dark.
# Before the 1-NBDG uptake test, CHO-SGLT2 cells were digested and seeded in a 96-well cell culture plate with a cell number of 40,000/well. After the cells were cultured for 48 h, the medium was discarded, and 100 μl of choline buffer was added to each well. After the cells were starved at 37° C. for 30 min, the choline buffer was discarded and 100 μl of the newly prepared Na^+ sodium buffer containing […] 1-NBDG and the test compounds (Compound) was added. The solvent DMSO was used as the negative control (Control) for the test compounds.
# The Na^+ sodium buffer without 1-NBDG was used as the blank control (Blank). After 1 h of culture, the incubation solution was discarded. The cells were washed with choline buffer solution 3 times, and then 50 μl of neutral lysate was added to each well to lyse the cells on ice for 10 min. The fluorescence value of each well was detected using a multi-functional microplate reader at […].
# At least 3 experimental replicates were set for each compound at indicated concentrations, and the data were expressed as mean±SEM. Uptake amount of 1-NBDG by cells=fluorescence value1-NBDG-fluorescence valueBlank. Inhibition rate on uptake amount of SGLT2 glucose (%)=(uptake amountcontrol−uptake amountcompound)/uptake amountcontrol×100%. Concentration-inhibition rate curves were plotted using Graphpad Prism software, and IC50 values were calculated accordingly.
smiles,measurement,setting,value
"CCOc1ccc(Cc2cc([C@@H]3O[C@H](CO)[C@@H](O)[C@H](O)[C@H]3O)ccc2Cl)cc1 [Dapagliflozin, reference compound]",Blood glucose 0 min,"normal ICR mice; 2 mg/kg by gavage, 0 min (fasting, 1 h after dosing)",71.8 ± 6.6 mg/dL
same,Blood glucose 30 min,"normal ICR mice; 2 mg/kg by gavage, 30 min after glucose 2.0 g/kg",213.2 ± 26.6 mg/dL
same,Blood glucose 60 min,"normal ICR mice; 2 mg/kg by gavage, 60 min after glucose 2.0 g/kg",122.2 ± 16.1 mg/dL
same,Blood glucose 120 min,"normal ICR mice; 2 mg/kg by gavage, 120 min after glucose 2.0 g/kg",83.0 ± 13.5 mg/dL
same,AUC of blood glucose,"normal ICR mice; 2 mg/kg by gavage, oral glucose 2.0 g/kg",257.7 ± 24.0 mg·h/dL
same,Reduction of the area under the curve (AUC) of blood glucose,"normal ICR mice; 2 mg/kg, vs. normal control group",35.2%
same,AUC of blood glucose,"[1]; 2.0 mg/kg single administration, 0-24 h",8866 ± 361.1***^ mg/dl · h
same,Concentration of blood glucose 0 h,"[1]; 2.0 mg/kg single administration, fasting, 0 h before administration",488.5 ± 29.2 mg/dL
same,Concentration of blood glucose 1 h,"[1]; 2.0 mg/kg single administration, fasting, 1 h",386.4 ± 16.5 mg/dL
same,Concentration of blood glucose 2 h,"[1]; 2.0 mg/kg single administration, fasting, 2 h",333.8 ± 13.9 mg/dL
same,Concentration of blood glucose 4 h,"[1]; 2.0 mg/kg single administration, fasting, 4 h",265.8 ± 9.1 mg/dL
same,Concentration of blood glucose 6 h,"[1]; 2.0 mg/kg single administration, fasting, 6 h",209.3 ± 8.0 ^ mg/dl
same,Concentration of blood glucose 8 h,"[1]; 2.0 mg/kg single administration, fasting, 8 h",176.7 ± 10.2 mg/dL
same,Concentration of blood glucose 24 h,"[1]; 2.0 mg/kg single administration, fasting, 24 h",649.4 ± 40.0 mg/dL
same,"Fasting blood glucose, the 15th day","[1]; 2.0 mg/kg, 15th day",183.0 ± 11.2 mg/dL
same,"Random blood glucose, the 15th day","[1]; 2.0 mg/kg, 15th day",344.7 ± 24.1 mg/dL
same,"Fasting blood glucose, the 22nd day","[1]; 2.0 mg/kg, 22nd day",191.8 ± 11.0 mg/dL
same,HbA1c,"[1]; 2.0 mg/kg, 28th day",5.1 ± 0.3 %
same,"Random blood glucose, the 22nd day (title: 28th day)","[1]; 2.0 mg/kg, column head 22nd day, title 28th day",317.0 ± 16.4 mg/dL
same,inhibition at 10 µM,SGLT2; compound concentration 1 × 10^−5 mol/L,106 ± 4.2%
same,inhibition at 10 pM,SGLT2; compound concentration 1 × 10^−11 mol/L,1.9 ± 9.2%
same,inhibition at 1 pM,SGLT2; compound concentration 1 × 10^−12 mol/L,6.8 ± 5.9%
same,inhibition at 0.05 µM,SGLT2; compound concentration 5 × 10^−8 mol/L,84.3 ± 4%
same,inhibition at 0.005 µM,SGLT2; compound concentration 5 × 10^−9 mol/L,84.8 ± 3.2%
same,inhibition at 0.0005 µM,SGLT2; compound concentration 5 × 10^−10 mol/L,60.1 ± 2%
same,inhibition at 50 pM,SGLT2; compound concentration 5 × 10^−11 mol/L,42 ± 2.8%
